CN1C(C(=O)Nc2ccccn2)=C(O)c2sccc2S1(=O)=O
Conditions	solubility (mole fraction)
in PEG-400, 298.15 K	0.0098
in PEG-400, 303.15 K	0.0134
in PEG-400, 308.15 K	0.0178
in PEG-400, 313.15 K	0.0228
in PEG-400, 323.15 K	0.035

in water
Conditions	solubility (mole fraction)
298.15 K	4.13e-06
303.15 K	5.1e-06
308.15 K	6.62e-06
313.15 K	8.49e-06
323.15 K	1.4e-05

Source: BigSolDB 2.1
